Laboratory results from paper PMC10082216 (Nature Communications, 2023).
Like-named read-outs stand apart in the source and are kept apart here.

Test: TD-6450 phase I clinical study (SAD/MAD): pharmacokinetics
Type: in vivo, human
Settings: human; for TD-6450 Concentration (ng/ml), Female subjects: in vivo; for TD-6450 Concentration (ng/ml), Female subjects / concentration at 1 h / concentration at 2 h / concentration at 3 h / concentration at 4 h / concentration at 6 h / concentration at 8 h / concentration at 12 h / concentration at 15 min / concentration at 24 h / concentration at 30 min / concentration at 48 h / concentration at 72 h / concentration at 96 h / concentration at 120 h / concentration at 144 h / concentration at 168 h: female; for concentration at 1 h / concentration at 2 h / concentration at 3 h / concentration at 4 h / concentration at 6 h / concentration at 8 h / concentration at 12 h / concentration at 15 min / concentration at 24 h / concentration at 30 min / concentration at 48 h / concentration at 72 h / concentration at 96 h / concentration at 120 h / concentration at 144 h / concentration at 168 h: Female subjects, read-out: Concentration
Procedure: Primary and secondary outcomes were pre-defined as follows: Safety and tolerability as a primary outcome, pharmacokinetics as a secondary outcome. Safety and tolerability were evaluated using standard measures, including adverse event (AE) monitoring, clinical laboratory tests (hematology, serum chemistry, coagulation, and urinalysis), vital signs, physical examinations, and 12-lead electrocardiograms (ECGs). […]
This study was conducted in two parts, Part A (SAD) and Part B (MAD). For the Part A, the age of enrolled subjects ranged from 20 to 60 years, with a mean age range of 32.1 to 46.2 years. Most subjects were male (73 total subjects) and most were white (55 subjects) or black (22 subjects). For Part B of the study, ages ranged from 23 to 60 years with a similar mean age across treatment groups. Most subjects were male (25 total subjects) and all were either white (18 subjects) or black (12 subjects). For each part of the study, the mean body mass index (BMI) and creatinine clearance were similar across treatment groups. […] Part A: Healthy subjects were sequentially enrolled and randomly assigned to each dose cohort (up to 10 dose-ascending cohorts were planned, including a fed arm in the food effect cohort) to receive either a single dose of TD-6450 or placebo. For each dose cohort, 8 subjects were randomized in a 3:1 ratio (6 subjects received TD-6450 and 2 subjects received placebo). The starting dose of TD-6450 was 0.5 mg with a planned maximum dose of 1000 mg. Upon review of the 500-mg cohort PK data, the decision was made to not escalate to the 1000-mg cohort because of exposure saturation at ≥ 500 mg. The following doses were administered: 0.5 mg, 1.5 mg, 5 mg, 15 mg, 30 mg, 60 mg, 120 mg, 240 mg, and 500 mg. Part B: Healthy subjects were sequentially enrolled in 3 ascending dose cohorts (TD-6450 60 mg, 120 mg, and 240 mg) and randomly assigned to receive either TD-6450 or placebo as once daily doses for 14 days. For each dose cohort, 10 subjects were randomized in a 4:1 ratio (8 subjects received TD-6450 and 2 subjects received placebo). Blinded safety, tolerability, and available PK data after each dose cohort were reviewed by the Safety Data Review Committee (SDRC) before escalation to the next dosing cohort for both part A and B. Subjects of the clinical study were randomly assigned to each cohort. Randomizations codes were assigned to the subjects. All study subjects, study investigators, and the sponsor’s staff involved in the conduct of the study were blinded to treatment assignment. The only personnel who had access to the randomization code before database lock were: The pharmacist or pharmacy staff member who prepared drug or placebo capsules for administration to the subject according to the randomization code and the bioanalytical contract laboratory that analyzed the PK samples (plasma and urine).

Question: Which Cmax at 1 day (both sexes, plasma, oral, 120 mg, MAD 120 mg, day 1, read-out: Cmax Mean ± SD, D1) does the source give for `CNC(=O)N1C[C@@H](C)N(c2ccc(C(=O)Nc3ccc(-c4ccc(-c5c[nH]c([C@@H]6CCCN6C(=O)[C@@H](NC(=O)OC)C(C)C)n5)cc4)c(OC(F)(F)F)c3)cn2)C[C@@H]1C` [TD-6450] here?
Answer: 216 ± 58 nM

Question: What about the Cmax at 14 day (both sexes, plasma, oral, 120 mg, MAD 120 mg, day 14, read-out: Cmax Mean ± SD, D14) of the same molecule?
Answer: 1010 ± 349 nM

Question: And the half-life at 14 day (both sexes, plasma, oral, 120 mg, MAD 120 mg, day 14, read-out: t1/2 Mean ± SD, D14 (converted))?
Answer: 66.4 ± 15 h

Question: What about the Cmax (both sexes, plasma, oral, 120 mg, SAD 120 mg, read-out: Cmax Mean ± SD) of the same molecule?
Answer: 174 ± 93.9 nM

Question: What about the half-life (both sexes, plasma, oral, 120 mg, SAD 120 mg, read-out: t1/2 Mean ± SD (converted)) of the same molecule?
Answer: 78.4 ± 13 h

Question: What about the Cmax (both sexes, plasma, oral, 240 mg, MAD 240 mg, day 1, read-out: Cmax Mean ± SD, D1) of the same molecule?
Answer: 459 ± 203 nM

Question: And the Cmax (both sexes, plasma, oral, 240 mg, MAD 240 mg, day 14, read-out: Cmax Mean ± SD, D14)?
Answer: 1770 ± 218 nM

Question: And the half-life (both sexes, plasma, oral, 240 mg, MAD 240 mg, day 14, read-out: t1/2 Mean ± SD, D14 (converted))?
Answer: 59.8 ± 12 h

Question: And the Cmax (both sexes, plasma, oral, 240 mg, SAD 240 mg, read-out: Cmax Mean ± SD)?
Answer: 278 ± 134 nM

Question: What about the half-life (both sexes, plasma, oral, 240 mg, SAD 240 mg, read-out: t1/2 Mean ± SD (converted)) of the same molecule?
Answer: 64.7 ± 7.7 h

Question: And the Cmax (both sexes, plasma, oral, 500 mg, SAD 500 mg, read-out: Cmax Mean ± SD)?
Answer: 244 ± 114 nM

Question: What about the half-life (both sexes, plasma, oral, 500 mg, SAD 500 mg, read-out: t1/2 Mean ± SD (converted)) of the same molecule?
Answer: 54.9 ± 5.5 h

Question: What about the “TD-6450 Concentration (ng/ml), Female subjects” value (shortened to “TD-6450 Concentration (ng/ml)”) (4 h) of the same molecule?
Answer: 48.60 ng/mL

Question: And the “TD-6450 Concentration (ng/ml)” value (6 h)?
Answer: 213.00 ng/mL

Question: What about the “TD-6450 Concentration (ng/ml)” value (8 h) of the same molecule?
Answer: 215.00 ng/mL

Question: And the concentration at 1 h (plasma, oral, 0.5 mg, SAD arm NCT02022306, Dose 0.50, 1 Hour)?
Answer: 0 ng/mL

Question: And the concentration at 2 h (plasma, oral, 0.5 mg, SAD arm NCT02022306, Dose 0.50, 2 Hours)?
Answer: 0 ng/mL

Question: And the concentration at 3 h (plasma, oral, 0.5 mg, SAD arm NCT02022306, Dose 0.50, 3 Hours)?
Answer: 0.52 ng/mL

Question: And the concentration at 4 h (plasma, oral, 0.5 mg, SAD arm NCT02022306, Dose 0.50, 4 Hours)?
Answer: 0.48 ng/mL

Question: And the concentration at 6 h (plasma, oral, 0.5 mg, SAD arm NCT02022306, Dose 0.50, 6 Hours)?
Answer: 0.67 ng/mL

Question: What about the concentration at 8 h (plasma, oral, 0.5 mg, SAD arm NCT02022306, Dose 0.50, 8 Hours) of the same molecule?
Answer: 0.31 ng/mL

Question: And the concentration at 12 h (plasma, oral, 0.5 mg, SAD arm NCT02022306, Dose 0.50, 12 Hours)?
Answer: 0 ng/mL

Question: And the concentration at 15 min (plasma, oral, 0.5 mg, SAD arm NCT02022306, Dose 0.50, 15 Minutes)?
Answer: 0 ng/mL

Question: What about the concentration at 24 h (plasma, oral, 0.5 mg, SAD arm NCT02022306, Dose 0.50, 24 Hours) of the same molecule?
Answer: 0 ng/mL

Question: And the concentration at 30 min (plasma, oral, 0.5 mg, SAD arm NCT02022306, Dose 0.50, 30 Minutes)?
Answer: 0 ng/mL

Question: What about the concentration at 48 h (plasma, oral, 0.5 mg, SAD arm NCT02022306, Dose 0.50, 48 Hours) of the same molecule?
Answer: 0.26 ng/mL

Question: What about the concentration at 72 h (plasma, oral, 0.5 mg, SAD arm NCT02022306, Dose 0.50, 72 Hours) of the same molecule?
Answer: 0.28 ng/mL

Question: And the concentration at 96 h (plasma, oral, 0.5 mg, SAD arm NCT02022306, Dose 0.50, 96 Hours)?
Answer: 0 ng/mL

Question: And the concentration at 120 h (plasma, oral, 0.5 mg, SAD arm NCT02022306, Dose 0.50, 120 Hours)?
Answer: 0 ng/mL

Question: And the concentration at 144 h (plasma, oral, 0.5 mg, SAD arm NCT02022306, Dose 0.50, 144 Hours)?
Answer: 0 ng/mL

Question: What about the concentration at 168 h (plasma, oral, 0.5 mg, SAD arm NCT02022306, Dose 0.50, 168 Hours) of the same molecule?
Answer: 0 ng/mL

Question: And the concentration at 1 h (plasma, oral, 5 mg, SAD arm NCT02022306, Dose 5.00, 1 Hour)?
Answer: 0.91 ng/mL

Question: What about the concentration at 2 h (plasma, oral, 5 mg, SAD arm NCT02022306, Dose 5.00, 2 Hours) of the same molecule?
Answer: 2.32 ng/mL

Question: What about the concentration at 3 h (plasma, oral, 5 mg, SAD arm NCT02022306, Dose 5.00, 3 Hours) of the same molecule?
Answer: 3.81 ng/mL

Question: And the concentration at 4 h (plasma, oral, 5 mg, SAD arm NCT02022306, Dose 5.00, 4 Hours)?
Answer: 4.11 ng/mL

Question: What about the concentration at 6 h (plasma, oral, 5 mg, SAD arm NCT02022306, Dose 5.00, 6 Hours) of the same molecule?
Answer: 4.27 ng/mL

Question: And the concentration at 8 h (plasma, oral, 5 mg, SAD arm NCT02022306, Dose 5.00, 8 Hours)?
Answer: 3.7 ng/mL

Question: And the concentration at 12 h (plasma, oral, 5 mg, SAD arm NCT02022306, Dose 5.00, 12 Hours)?
Answer: 3.01 ng/mL

Question: What about the concentration at 15 min (plasma, oral, 5 mg, SAD arm NCT02022306, Dose 5.00, 15 Minutes) of the same molecule?
Answer: 0 ng/mL

Question: And the concentration at 24 h (plasma, oral, 5 mg, SAD arm NCT02022306, Dose 5.00, 24 Hours)?
Answer: 2.55 ng/mL

Question: What about the concentration at 30 min (plasma, oral, 5 mg, SAD arm NCT02022306, Dose 5.00, 30 Minutes) of the same molecule?
Answer: 0 ng/mL

Question: What about the concentration at 48 h (plasma, oral, 5 mg, SAD arm NCT02022306, Dose 5.00, 48 Hours) of the same molecule?
Answer: 2.13 ng/mL

Question: What about the concentration at 72 h (plasma, oral, 5 mg, SAD arm NCT02022306, Dose 5.00, 72 Hours) of the same molecule?
Answer: 1.75 ng/mL

Question: And the concentration at 96 h (plasma, oral, 5 mg, SAD arm NCT02022306, Dose 5.00, 96 Hours)?
Answer: 1.15 ng/mL

Question: What about the concentration at 144 h (plasma, oral, 5 mg, SAD arm NCT02022306, Dose 5.00, 144 Hours) of the same molecule?
Answer: 0.77 ng/mL

Question: What about the concentration at 168 h (plasma, oral, 5 mg, SAD arm NCT02022306, Dose 5.00, 168 Hours) of the same molecule?
Answer: 0.61 ng/mL

Question: And the concentration at 1 h (plasma, oral, 15 mg, SAD arm NCT02022306, Dose 15.00, 1 Hour)?
Answer: 1.46 ng/mL

Question: And the concentration at 2 h (plasma, oral, 15 mg, SAD arm NCT02022306, Dose 15.00, 2 Hours)?
Answer: 10.1 ng/mL

Question: What about the concentration at 3 h (plasma, oral, 15 mg, SAD arm NCT02022306, Dose 15.00, 3 Hours) of the same molecule?
Answer: 13.9 ng/mL

Question: And the concentration at 4 h (plasma, oral, 15 mg, SAD arm NCT02022306, Dose 15.00, 4 Hours)?
Answer: 18 ng/mL

Question: What about the concentration at 6 h (plasma, oral, 15 mg, SAD arm NCT02022306, Dose 15.00, 6 Hours) of the same molecule?
Answer: 18.1 ng/mL

Question: And the concentration at 8 h (plasma, oral, 15 mg, SAD arm NCT02022306, Dose 15.00, 8 Hours)?
Answer: 15.1 ng/mL

Question: And the concentration at 12 h (plasma, oral, 15 mg, SAD arm NCT02022306, Dose 15.00, 12 Hours)?
Answer: 10.7 ng/mL

Question: What about the concentration at 15 min (plasma, oral, 15 mg, SAD arm NCT02022306, Dose 15.00, 15 Minutes) of the same molecule?
Answer: 0 ng/mL

Question: What about the concentration at 24 h (plasma, oral, 15 mg, SAD arm NCT02022306, Dose 15.00, 24 Hours) of the same molecule?
Answer: 9.09 ng/mL

Question: What about the concentration at 30 min (plasma, oral, 15 mg, SAD arm NCT02022306, Dose 15.00, 30 Minutes) of the same molecule?
Answer: 0 ng/mL

Question: And the concentration at 48 h (plasma, oral, 15 mg, SAD arm NCT02022306, Dose 15.00, 48 Hours)?
Answer: 6.98 ng/mL

Question: What about the concentration at 72 h (plasma, oral, 15 mg, SAD arm NCT02022306, Dose 15.00, 72 Hours) of the same molecule?
Answer: 5.88 ng/mL

Question: And the concentration at 96 h (plasma, oral, 15 mg, SAD arm NCT02022306, Dose 15.00, 96 Hours)?
Answer: 5.19 ng/mL

Question: What about the concentration at 120 h (plasma, oral, 15 mg, SAD arm NCT02022306, Dose 15.00, 120 Hours) of the same molecule?
Answer: 4.42 ng/mL
